These results are taken from ChEMBL document CHEMBL4477252, “Optimization of microtubule affinity regulating kinase (MARK) inhibitors with improved physical properties” (Bioorg Med Chem Lett, 2016).

Values after ≈ are worked out from the molar mass of the structure shown. Where only a bound is given, the exact number is not on record here.

Usually IC50 stands for the concentration that inhibits the measured activity by half. One may read the clearance as a measure of how efficiently the substance is removed, as volume per time. A lower clearance goes with inefficient removal. In general, efflux ratio refers to a quotient of directional permeabilities that is used to spot active efflux. In general, solubility refers to how much of the substance goes into solution per volume. Read a high solubility as a readily soluble substance.

One series deals with MAP/microtubule affinity-regulating kinase 3 (Homo sapiens, UniProt P27448). The experiment in a line: Inhibition of full-length recombinant human GST-tagged MARK3 expressed in baculovirus expression system using biotinylated-Cdc25C peptide substrate measured after 2 hrs by HTRF assay.
Sequence of MAP/microtubule affinity-regulating kinase 3 (P27448 whole entry): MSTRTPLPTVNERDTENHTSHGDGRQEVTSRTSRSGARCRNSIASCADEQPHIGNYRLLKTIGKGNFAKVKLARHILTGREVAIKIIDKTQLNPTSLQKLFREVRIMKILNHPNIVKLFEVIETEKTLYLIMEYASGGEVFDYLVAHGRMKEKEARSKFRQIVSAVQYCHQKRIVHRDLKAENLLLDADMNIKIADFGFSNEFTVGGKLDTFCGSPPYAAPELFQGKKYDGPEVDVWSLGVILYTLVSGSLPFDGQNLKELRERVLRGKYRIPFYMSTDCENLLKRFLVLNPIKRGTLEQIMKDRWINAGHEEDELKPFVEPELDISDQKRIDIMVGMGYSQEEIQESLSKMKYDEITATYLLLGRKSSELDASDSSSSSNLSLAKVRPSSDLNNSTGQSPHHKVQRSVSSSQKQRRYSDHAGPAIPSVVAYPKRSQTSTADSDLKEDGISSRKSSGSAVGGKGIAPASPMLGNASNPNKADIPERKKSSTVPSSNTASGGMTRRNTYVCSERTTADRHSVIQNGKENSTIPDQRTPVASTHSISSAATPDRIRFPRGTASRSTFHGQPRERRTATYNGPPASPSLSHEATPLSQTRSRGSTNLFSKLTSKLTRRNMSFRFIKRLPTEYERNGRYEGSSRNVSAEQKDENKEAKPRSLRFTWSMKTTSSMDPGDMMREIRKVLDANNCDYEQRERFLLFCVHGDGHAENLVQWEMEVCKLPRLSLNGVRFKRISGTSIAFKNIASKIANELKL
Conditions: not given
In the case of `CCNC(=O)c1cc(-c2cnn3cc(-c4cnn(C)c4)cnc23)cs1`, the IC50 was determined as 129 nM.
As to `Cn1cc(-c2cnc3c(-c4csc(C(=O)N[C@@H]5CCCC[C@H]5O)c4)cnn3c2)cn1` (mixture of isomers), the 50% inhibitory concentration (IC50) came to 24 nM.
As to `Cc1sc(C(=O)N[C@@H]2CCCC[C@@H]2N)cc1-c1cnn2cc(-c3cnn(C)c3)cnc12` (racemic), the half-maximal inhibitory concentration (IC50) is 1.3 nM.
On the same count and under the same terms, the result for `Cn1cc(-c2cnc3c(-c4csc(C(=O)NCCC(N)C(F)(F)F)c4)cnn3c2)cn1` (stereo not drawn) reads 10 nM; that for `Cc1sc(C(=O)N[C@@H]2[C@H](N)CCCC2(F)F)cc1-c1cnn2cc(-c3cnn(C)c3)cnc12`, less than 0.25 nM.
`Cc1sc(C(=O)N[C@H]2CCCC(F)(F)[C@H]2N)cc1-c1cnn2cc(-c3cnn(C)c3)cnc12`: the IC50 stood at 130 nM.
Same read-out and setting: the value for `Cn1cc(-c2cnc3c(-c4csc(C(=O)N[C@@H]5CCCC[C@@H]5O)c4)cnn3c2)cn1` (racemic) was 9 nM.
Still for that read-out and setting: the result for `Cn1cc(-c2cnc3c(-c4csc(C(=O)N[C@@H]5CCC[C@@H]5O)c4)cnn3c2)cn1` (racemic) reads 43 nM; that for `Cn1cc(-c2cnc3c(-c4csc(C(=O)N[C@@H]5CCC[C@H]5N)c4)cnn3c2)cn1` (racemic), 3 nM.
Still for that read-out and setting: the result for `Cn1cnc(-c2cnc3c(-c4csc(C(=O)NCC(F)(F)F)c4)cnn3c2)c1` reads 13 nM.
Consider `Cn1cc(-c2cnc3c(-c4csc(C(=O)NCCC(N)C(F)F)c4)cnn3c2)cn1` (stereo not drawn), for which the IC50 amounted to 15 nM.
Same read-out and setting: the result for `O=C(NCC(F)(F)F)c1cc(-c2cnn3cc(-c4cccnc4)cnc23)cs1` reads 70 nM; that for `Cn1cc(-c2cnc3c(-c4csc(C(=O)N[C@@H]5CCC[C@H]5O)c4)cnn3c2)cn1` (racemic), 10 nM; that for `Cn1cc(-c2cnc3c(-c4csc(C(=O)N[C@@H]5CCCC[C@H]5N)c4)cnn3c2)cn1` (racemic), 1 nM.
Same read-out and setting: the result for `Cn1cc(-c2cnc3c(-c4csc(C(=O)N[C@@H]5CCC[C@@H]5N)c4)cnn3c2)cn1` (racemic) reads 2 nM; that for `O=C(NCC(F)(F)F)c1cc(-c2cnn3cc(-c4cn[nH]c4)cnc23)cs1`, 99 nM; that for `Cn1cc(-c2cnc3c(-c4csc(C(=O)NCCC(N)CF)c4)cnn3c2)cn1` (stereo not drawn), 22 nM.
The same measure, in the same setting: the result for `Cn1cc(-c2cnc3c(-c4csc(C(=O)NC(CO)C5CC5)c4)cnn3c2)cn1` (stereo not drawn) reads 9 nM; that for `Cc1sc(C(=O)N[C@@H]2[C@H](N)CCCC2(F)F)cc1-c1cnn2cccnc12`, 2.4 nM.
`COCCOc1ccc(-c2cnc3c(-c4csc(C(=O)NCC(F)(F)F)c4)cnn3c2)cc1`: the IC50 came out at 5 nM.

Tested on in another series: not listed separately
The series can be described thus: Clearance in Sprague-Dawley rat at 1 mL/kg, iv administered through catheter measured after 24 hrs by LC-MS/MS analysis. The class given is ADME, organism-based. To be noted: in vivo.
As for `Cn1cc(-c2cnc3c(-c4csc(C(=O)NCCC(N)C(F)(F)F)c4)cnn3c2)cn1` (stereo not drawn), the clearance amounted to 14 mL/min/kg.
Still for that read-out and setting: the result for `Cn1cc(-c2cnc3c(-c4csc(C(=O)NCCC(N)C(F)F)c4)cnn3c2)cn1` (stereo not drawn) reads 16.7 mL/min/kg.

A further series deals with MDR1 (ABCB1, P-glycoprotein) (Homo sapiens, UniProt P08183). The experiment in a line: Substrate activity at human MDR1 expressed in LLC-PK1 cells assessed as efflux ratio of permeability across basolateral to apical over apical to basolateral side at 5 uM. The class given is ADME, cell-based.
Sequence of MDR1 (ABCB1, P-glycoprotein) (P08183 whole entry): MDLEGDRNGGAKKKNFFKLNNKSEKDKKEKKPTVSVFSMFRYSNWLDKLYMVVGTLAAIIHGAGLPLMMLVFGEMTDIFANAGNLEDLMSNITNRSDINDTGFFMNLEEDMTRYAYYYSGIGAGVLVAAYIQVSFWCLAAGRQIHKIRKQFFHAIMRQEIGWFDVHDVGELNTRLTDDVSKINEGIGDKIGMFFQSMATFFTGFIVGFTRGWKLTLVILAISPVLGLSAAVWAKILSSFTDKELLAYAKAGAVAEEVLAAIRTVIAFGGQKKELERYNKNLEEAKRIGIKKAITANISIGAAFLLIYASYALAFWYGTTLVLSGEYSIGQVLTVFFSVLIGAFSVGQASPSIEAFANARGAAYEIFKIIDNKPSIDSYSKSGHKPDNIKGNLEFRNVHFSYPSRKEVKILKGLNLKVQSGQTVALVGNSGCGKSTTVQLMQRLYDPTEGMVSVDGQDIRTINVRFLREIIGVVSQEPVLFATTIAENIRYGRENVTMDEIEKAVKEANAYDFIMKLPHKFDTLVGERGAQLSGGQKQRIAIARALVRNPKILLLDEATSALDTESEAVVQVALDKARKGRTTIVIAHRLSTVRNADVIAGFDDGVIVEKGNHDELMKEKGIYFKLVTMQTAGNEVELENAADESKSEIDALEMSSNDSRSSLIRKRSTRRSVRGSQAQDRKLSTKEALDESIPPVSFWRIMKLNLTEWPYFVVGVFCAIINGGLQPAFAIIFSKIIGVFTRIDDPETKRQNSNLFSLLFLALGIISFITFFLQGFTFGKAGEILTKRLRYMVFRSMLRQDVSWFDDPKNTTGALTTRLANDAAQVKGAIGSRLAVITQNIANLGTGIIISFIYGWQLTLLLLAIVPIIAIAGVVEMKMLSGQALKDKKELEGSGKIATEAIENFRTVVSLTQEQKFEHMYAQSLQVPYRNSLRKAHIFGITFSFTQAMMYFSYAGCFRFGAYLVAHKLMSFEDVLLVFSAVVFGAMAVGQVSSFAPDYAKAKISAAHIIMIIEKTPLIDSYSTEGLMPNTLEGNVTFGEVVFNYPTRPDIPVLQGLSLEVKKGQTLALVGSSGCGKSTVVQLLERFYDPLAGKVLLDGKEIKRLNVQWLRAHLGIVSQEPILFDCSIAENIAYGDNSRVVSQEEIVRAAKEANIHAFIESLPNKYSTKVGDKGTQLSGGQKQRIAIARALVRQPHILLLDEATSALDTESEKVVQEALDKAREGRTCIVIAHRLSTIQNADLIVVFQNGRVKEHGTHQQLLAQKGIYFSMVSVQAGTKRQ
Conditions: not given
Regarding `Cn1cc(-c2cnc3c(-c4csc(C(=O)NCCC(N)C(F)(F)F)c4)cnn3c2)cn1` (stereo not drawn), the efflux ratio at 5 µM stood at 4.8.
Same read-out and setting: the value for `Cn1cc(-c2cnc3c(-c4csc(C(=O)NCCC(N)C(F)F)c4)cnn3c2)cn1` (stereo not drawn) was 11.5; that for `Cn1cc(-c2cnc3c(-c4csc(C(=O)NCCC(N)CF)c4)cnn3c2)cn1` (stereo not drawn) was 16.7.
The same measure, in the same setting: the value for `Cc1sc(C(=O)N[C@@H]2[C@H](N)CCCC2(F)F)cc1-c1cnn2cccnc12` was 10.

Tested on in another series: not listed separately
The series can be described thus: Solubility of the compound at pH 7. It counts as physicochemical. To be noted: buffer.
Compound `Cn1cc(-c2cnc3c(-c4csc(C(=O)N[C@@H]5CCCC[C@H]5O)c4)cnn3c2)cn1` (mixture of isomers) had a solubility of 6 µM.
The same measure, in the same setting: the value for `Cc1sc(C(=O)N[C@@H]2CCCC[C@@H]2N)cc1-c1cnn2cc(-c3cnn(C)c3)cnc12` (racemic) was 192 µM (≈ 83.6 µg/mL); that for `Cc1sc(C(=O)N[C@@H]2[C@H](N)CCCC2(F)F)cc1-c1cnn2cc(-c3cnn(C)c3)cnc12` was 31 µM (≈ 14.6 µg/mL).
In turn, `Cn1cc(-c2cnc3c(-c4csc(C(=O)N[C@@H]5CCC[C@H]5N)c4)cnn3c2)cn1` (racemic) showed a solubility of 203 µM (≈ 82.7 µg/mL).
On to `Cn1cc(-c2cnc3c(-c4csc(C(=O)N[C@@H]5CCCC[C@H]5N)c4)cnn3c2)cn1` (racemic), for which the solubility stood at 193 µM (≈ 81.4 µg/mL).
Still for that read-out and setting: the result for `Cn1cc(-c2cnc3c(-c4csc(C(=O)N[C@@H]5CCC[C@@H]5N)c4)cnn3c2)cn1` (racemic) reads 69 µM (≈ 28.1 µg/mL); that for `Cc1sc(C(=O)N[C@@H]2[C@H](N)CCCC2(F)F)cc1-c1cnn2cccnc12`, 200 µM (≈ 78.3 µg/mL).
